The experiment concerns SARS-CoV-2 (USA-WA1/2020) in Calu-3 cells. The class given is cell-based. The following applies: Calu-3, 48 h; for dsRNA signal, AU High: high dose (10 µM); for dsRNA signal, AU Low: low dose (100 nM).

On to `CCCCCCCCCCCCCC(=O)O[C@@H]1[C@@H](C)[C@@]2(O)[C@@H](C=C(CO)C[C@]3(O)C(=O)C(C)=C[C@@H]23)[C@@H]2C(C)(C)[C@]12OC(C)=O`, for which the “dsRNA signal, AU High” value came out at 6922.4 AU and the “dsRNA signal, AU Low” value was determined as 0.0 AU.

2-D08: the “dsRNA signal, AU High” value worked out at 21678.5 AU and the “dsRNA signal, AU Low” value was determined as 7689.9 AU.

As for 6H05, the “dsRNA signal, AU High” value was 9210.5 AU and the “dsRNA signal, AU Low” value turned out to be 25435.6 AU.

In the case of 10058-F4, the “dsRNA signal, AU High” value is given as 21785.0 AU and the “dsRNA signal, AU Low” value is on record as 24031.2 AU.

Consider `O=C(O)C(Cc1ccccc1[N+](=O)[O-])=NNc1nc(-c2ccc(Cl)c(Cl)c2)cs1` (mixture of isomers) [4EGI-1], for which the “dsRNA signal, AU High” value amounted to 27081.3 AU and the “dsRNA signal, AU Low” value came to 17726.3 AU.

For the molecule `COC(=O)C1=C(C)NC(C)=C(C(=O)O[C@@H]2CCCN(Cc3ccccc3)C2)[C@@H]1c1cccc([N+](=O)[O-])c1.Cl` (racemic) [Benidipine HCl], the “dsRNA signal, AU High” value was 130.4 AU and the “dsRNA signal, AU Low” value turned out to be 31078.1 AU.

As to `O=C(COc1ccc(Cl)cc1)NC1CCC(NC(=O)COc2ccc(Cl)cc2)CC1` (single isomer, unassigned) [ISRIB (trans-isomer)], the “dsRNA signal, AU High” value turned out to be 6980.3 AU and the “dsRNA signal, AU Low” value is 60689.2 AU.

Turning to `CC(=O)c1c(O)c(C)c(O)c2c1OC1=CC(=O)C(C(C)=O)C(=O)C12C` (single isomer, unassigned; (+)) [(+)-Usniacin], the “dsRNA signal, AU High” value is listed as 3049.6 AU and the “dsRNA signal, AU Low” value is recorded as 59009.6 AU.

Regarding `O=C1NC(=O)C(=Cc2ccc(-c3ccc(F)cc3)o2)S1` (stereo in doubt) [CAY10505], the “dsRNA signal, AU High” value turned out to be 15375.8 AU and the “dsRNA signal, AU Low” value came out at 16784.8 AU.

Consider `BrC1C(Br)C(Br)C(Br)C(Br)C1Br` (stereo not drawn) [1,2,3,4,5,6-Hexabromocyclohexane], for which the “dsRNA signal, AU High” value worked out at 58.9 AU and the “dsRNA signal, AU Low” value is on record as 23091.7 AU.

With `CCCCCCCCCCCC(=O)OC[C@H](CO)OC(=O)CCCCCCCCCCC` [1,2-Dilauroyl-sn-glycerol], the “dsRNA signal, AU High” value worked out at 32229.3 AU and the “dsRNA signal, AU Low” value is 52450.9 AU.

On to `OCC1OC(O)CC(O)C1O` [2-Deoxy-D-glucose], for which the “dsRNA signal, AU High” value is recorded as 5572.7 AU and the “dsRNA signal, AU Low” value is listed as 62378.7 AU.

Turning to `Cn1cnc(N)c2ncnc1-2` [3-Methyladenine], the “dsRNA signal, AU High” value amounted to 32357.3 AU and the “dsRNA signal, AU Low” value turned out to be 26977.2 AU.

Turning to `Cc1c[nH]c2ccccc12` [3-Methylindole], the “dsRNA signal, AU High” value came to 0.0 AU and the “dsRNA signal, AU Low” value turned out to be 1602.7 AU.

Regarding `O=C(CCl)c1c[nH]c2ccccc12` [3CAI], the “dsRNA signal, AU High” value is 6736.4 AU and the “dsRNA signal, AU Low” value was 43810.0 AU.

Turning to `O=C(O)c1ccc(N2C(=O)/C(=C\c3ccc(-c4ccc([N+](=O)[O-])cc4)o3)C=C2c2ccccc2)cc1` [4E1RCat], the “dsRNA signal, AU High” value is 11534.6 AU and the “dsRNA signal, AU Low” value is reported as 17206.1 AU.

With `Nc1ncnc2c1c(I)cn2[C@@H]1O[C@H](CO)[C@@H](O)[C@H]1O` [5-Iodotubercidin], the “dsRNA signal, AU High” value is recorded as 2639.0 AU and the “dsRNA signal, AU Low” value is recorded as 20167.4 AU.

For the molecule `O=c1cc(-c2ccccc2)oc2c(O)c(O)ccc12` [7,8-Dihydroxyflavone], the “dsRNA signal, AU High” value was 9230.6 AU and the “dsRNA signal, AU Low” value was 39399.4 AU.

Take `CCCCCCCC/C=C\CCCCCCCCCCCC(=O)O` [13(Z)-Docosenoic Acid]: the “dsRNA signal, AU High” value is recorded as 4336.2 AU and the “dsRNA signal, AU Low” value is listed as 49926.0 AU.

As for `Cc1[nH]nc2ccc(-c3cncc(OC[C@@H](N)Cc4ccccc4)c3)cc12` [A-674563], the “dsRNA signal, AU High” value was 0.0 AU and the “dsRNA signal, AU Low” value stood at 6156.4 AU.

With `Cc1c(NC(=O)OC[C@@H]2COCCN2)cn2ncnc(Nc3ccc4c(cnn4Cc4cccc(F)c4)c3)c12` [AC480 (BMS-599626)], the “dsRNA signal, AU High” value stood at 468.1 AU and the “dsRNA signal, AU Low” value amounted to 62401.2 AU.

For the molecule `COCc1c(-c2ccc(NC(=O)Nc3cc(C(F)(F)F)ccc3F)c(F)c2)c2c(N)ncnn2c1CN1CCOCC1` [ACTB-1003], the “dsRNA signal, AU High” value is 28009.9 AU and the “dsRNA signal, AU Low” value was determined as 9584.0 AU.

Take `N#C/C(=C/c1ccc(O)c(O)c1)C(=O)NCc1ccccc1` [AG-490]: the “dsRNA signal, AU High” value is recorded as 8748.3 AU and the “dsRNA signal, AU Low” value was found to be 4415.8 AU.

As to `CC(C)(C)c1cc(C=C(C#N)C#N)cc(Br)c1O` [AG-1024], the “dsRNA signal, AU High” value is on record as 1211.9 AU and the “dsRNA signal, AU Low” value is 44737.5 AU.

Consider `COc1cc2ncnc(Nc3cccc(Cl)c3)c2cc1OC` [AG-1478], for which the “dsRNA signal, AU High” value amounted to 1676.2 AU and the “dsRNA signal, AU Low” value was found to be 67129.9 AU.

`NC(=O)c1ncn([C@@H]2O[C@H](CO)[C@@H](O)[C@H]2O)c1N` [AICAR]: the “dsRNA signal, AU High” value was 10649.1 AU and the “dsRNA signal, AU Low” value is listed as 34470.9 AU.

As for `c1ccc(-c2oc3ncnc(NC[C@@H]4CCCO4)c3c2-c2ccccc2)cc1` [AIM-100], the “dsRNA signal, AU High” value stood at 17272.0 AU and the “dsRNA signal, AU Low” value was determined as 4414.3 AU.

`O=c1[nH]c2ccccc2n1C1CCN(Cc2ccc(-c3nc4cc5[nH]cnc5cc4nc3-c3ccccc3)cc2)CC1` [AKT inhibitor VIII]: the “dsRNA signal, AU High” value amounted to 14379.0 AU and the “dsRNA signal, AU Low” value amounted to 47838.1 AU.

For `O=C(Nc1ccccc1C(=O)NC1CCCCNC1=O)c1cc2ccccc2s1` (stereo not drawn) [ANA 12], the “dsRNA signal, AU High” value turned out to be 5083.5 AU and the “dsRNA signal, AU Low” value came out at 20498.0 AU.

Turning to `c1cc(Nc2cc(C3CC3)[nH]n2)nc(Nc2ccc3nc[nH]c3c2)n1` [APY29], the “dsRNA signal, AU High” value came out at 1195.6 AU and the “dsRNA signal, AU Low” value came to 15781.0 AU.

For `COc1ccc(CNC(=O)Nc2ncc([N+](=O)[O-])s2)cc1` [AR-A014418], the “dsRNA signal, AU High” value is 79.4 AU and the “dsRNA signal, AU Low” value stood at 22152.5 AU.

As for `N#CC(c1ccnc(NCCc2cccnc2)n1)c1nc2ccccc2s1` (stereo not drawn) [AS601245], the “dsRNA signal, AU High” value amounted to 18398.2 AU and the “dsRNA signal, AU Low” value is given as 6237.2 AU.

As for `O=C1NC(=O)/C(=C\c2ccc3nccnc3c2)S1` [AS-605240], the “dsRNA signal, AU High” value came to 11785.5 AU and the “dsRNA signal, AU Low” value is listed as 49405.3 AU.

`COc1cc(N2CCC(N3CCN(C)CC3)CC2)ccc1Nc1ncnc(Nc2ccccc2S(=O)(=O)C(C)C)n1` [ASP3026]: the “dsRNA signal, AU High” value stood at 11916.3 AU and the “dsRNA signal, AU Low” value is listed as 27995.4 AU.

Regarding `CCN1CCN(Cc2ccc(NC(=O)Nc3ccc(Oc4cc(NC)ncn4)cc3)cc2C(F)(F)F)CC1` [AST 487], the “dsRNA signal, AU High” value came to 7505.2 AU and the “dsRNA signal, AU Low” value is recorded as 5709.8 AU.

For the molecule `Cl.O=C(NC1CCNCC1)c1[nH]ncc1NC(=O)c1c(Cl)cccc1Cl` [AT7519 Hydrochloride], the “dsRNA signal, AU High” value was found to be 0.0 AU and the “dsRNA signal, AU Low” value came to 18031.2 AU.

For `Clc1ccc(C2(c3ccc(-c4cn[nH]c4)cc3)CCNCC2)cc1` [AT7867], the “dsRNA signal, AU High” value is recorded as 150.0 AU and the “dsRNA signal, AU Low” value is reported as 6554.9 AU.

With `C=CC(=O)Nc1cccc(Nc2nc(Nc3ccc(OCCOC)cc3)ncc2F)c1` [AVL-292], the “dsRNA signal, AU High” value was determined as 20034.7 AU and the “dsRNA signal, AU Low” value amounted to 9433.9 AU.

As for `N#Cc1ccc2[nH]c(O)c(-c3ccc(CN4CCOCC4)cn3)c2c1` [AZD1080], the “dsRNA signal, AU High” value is 30210.5 AU and the “dsRNA signal, AU Low” value turned out to be 12322.5 AU.

As to `CC(C)n1c(=O)n(C)c2cnc3cc(F)c(-c4ccc(OCCCN5CCCCC5)nc4)cc3c21` [AZD1390], the “dsRNA signal, AU High” value worked out at 7959.8 AU and the “dsRNA signal, AU Low” value stood at 37767.2 AU.

As to `CNC(=O)c1cccc(-c2ccc3c(N4CCOC[C@@H]4C)nc(N4CCOC[C@@H]4C)nc3n2)c1` [AZD2014], the “dsRNA signal, AU High” value amounted to 4130.5 AU and the “dsRNA signal, AU Low” value worked out at 12584.4 AU.

With `CN1CCN(S(=O)(=O)c2ccc(-c3cnc(N)c(C(=O)Nc4cccnc4)n3)cc2)CC1` [AZD2858], the “dsRNA signal, AU High” value worked out at 10014.5 AU and the “dsRNA signal, AU Low” value is on record as 6684.6 AU.

Regarding `Cc1noc(C)c1-c1ccc(-c2cc(C(N)=O)c(NC(N)=O)s2)c(O[C@H]2CCNC2)c1` [AZD3264], the “dsRNA signal, AU High” value is 223.2 AU and the “dsRNA signal, AU Low” value is listed as 47155.4 AU.

Turning to `Cn1cnc2c(F)c(Nc3ccc(Br)cc3Cl)c(C(=O)NOCCO)cc21` [AZD6244 (Selumetinib)], the “dsRNA signal, AU High” value was found to be 7299.3 AU and the “dsRNA signal, AU Low” value came out at 3732.5 AU.

On to `C[C@@H]1COCCN1c1cc(C2([S@](C)(=N)=O)CC2)nc(-c2cc[nH]c3nccc2-3)n1` [AZD6738], for which the “dsRNA signal, AU High” value was determined as 290.6 AU and the “dsRNA signal, AU Low” value was found to be 16844.7 AU.

`COc1ccc(-c2ccc3c(N4CCOC[C@@H]4C)nc(N4CCOC[C@@H]4C)nc3n2)cc1CO` [AZD8055]: the “dsRNA signal, AU High” value is on record as 0.0 AU and the “dsRNA signal, AU Low” value came to 39910.8 AU.

On to `C[C@@H](Nc1cc(F)cc(F)c1)c1cc(C(=O)N(C)C)cc2c(=O)cc(N3CCOCC3)oc12` [AZD8186], for which the “dsRNA signal, AU High” value is on record as 4769.3 AU and the “dsRNA signal, AU Low” value is on record as 35908.0 AU.

On to `Cc1cc(C(=O)NOCCO)c(Nc2ccc(I)cc2F)n(C)c1=O` [AZD8330], for which the “dsRNA signal, AU High” value worked out at 29149.3 AU and the “dsRNA signal, AU Low” value is on record as 63631.5 AU.

In the case of `COc1cc(N2CCC(N)CC2)ccc1Nc1ncc(Cl)c(-c2c[nH]c3ccccc23)n1` [AZD-3463], the “dsRNA signal, AU High” value worked out at 9390.1 AU and the “dsRNA signal, AU Low” value came out at 40804.7 AU.

For `Cc1ncc(-c2ccnc(Nc3ccc(S(C)(=O)=O)cc3)n2)n1C(C)C` [AZD-5438], the “dsRNA signal, AU High” value is 10643.7 AU and the “dsRNA signal, AU Low” value came to 32871.5 AU.

With `CN(C)C/C=C/C(=O)Nc1cc2c(Nc3ccc(F)c(Cl)c3)ncnc2cc1O[C@H]1CCOC1` [Afatinib (BIBW2992)], the “dsRNA signal, AU High” value is listed as 1924.8 AU and the “dsRNA signal, AU Low” value was determined as 12314.4 AU.

The values above are taken from paper PMC12142043, “Cell-based high-content approach for SARS-CoV-2 neutralization identifies unique monoclonal antibodies and PI3K pathway inhibitors” (Frontiers in Cell and Developmental Biology, 2025).
